Patent publication US20230115208A1, “RING-FUSED THIAZOLINO 2-PYRIDONES, METHODS FOR PREPARATION THEREOF AND THEIR USE IN THE TREATMENT AND/OR PREVENTION OF TUBERCULOSIS” (QURETECH BIO AB, priority 2016, published 2023)

Tested on: katGFSAA6 Mtb (INH-resistant, frameshift at amino acid 6 in katG)
Format: cell-based, Mycobacterium tuberculosis

Structure (SMILES): NNC(=O)c1ccncc1 [INH, isonicotinylhydrazide, reference compound]
- doubling time: 55 h

Structure (SMILES): O=C(O)[C@@H]1CSc2c(C3CC3)c(Cc3cccc4ccccc34)cc(=O)n21 [Example 1, (3R)-7-Cyclopropyl-6-[(1-naphthyl)methyl]-4-oxo-1-thia-3a-aza-3-indancarboxylic acid]
- doubling time: 48 h
